For 34 compounds, IC50 results are on record in US7208526B2, “Styrylsulfonamides” (Hoffmann-La Roche Inc., priority 2005, dated 2007).

Where a name gives a salt, the structure may show the parent alone.

In the experiment the test system is HCT 116 cells (human colon carcinoma, ATCC-No. CCl-247). Description: Viability assay in HCT 116 cells (CellTiter-Glo Luminescent Cell Viability Assay). The class given is cell-based. Particulars: 10 concentrations 30 μM to 0.0015 μM, incubation 120 h (5 days), luminescence (ATP), triplicate. An excerpt:
Viability Assay in HCT 116 Cells
This assay is a homogeneous method of determining the number of viable cells in culture based on quantitation of the ATP present, an indicator of metabolically active cells. The assay is designed for use with multiwell formats, making it ideal for automated high-throughput screening (HTS), cell proliferation and cytotoxicity assays. The homogeneous assay procedure involves adding a single reagent (containing luciferase, luciferan substrate, and buffer) directly to cells cultured in serum-supplemented medium. Cell washing, removal of medium and multiple pipetting steps are not required. The system detects as few as 15 cells/well in a 384-well format in 10 minutes after adding reagent and mixing.
The homogeneous “add-mix-measure” format results in cell lysis and generation of a luminescent signal proportional to the amount of ATP present. The amount of ATP is directly proportional to the number of cells present in culture. The above-referenced assay generates a “glow-type” luminescent signal, produced by the luciferase reaction, which has a half-life generally greater than five hours, depending on cell type and medium used. The extended half-life eliminates the need to use reagent injectors and provides flexibility for continuous or batch mode processing of multiple plates. The unique homogeneous format avoids errors that may be introduced by other ATP measurement methods that require multiple steps.
For the assay the cells were seeded in 384 well plates, 1000 cells per well, in the same medium. […] After 5 days the viability assay was done according to the instructions of the manufacturer. In brief: the cell-plate was equilibrated to room temperature for approximately 30 minutes and then reagent (containing luciferase, luciferan substrate, and buffer) was added. The contents were carefully mixed for 15 minutes to induce cell lysis. After 45 minutes the luminescent signal was measured in Victor 2, (scanning multiwell spectrophotometer, Wallac).
In order to achieve a final concentration of 30 μM as highest concentration […] of 10 mM compound stock solution were added directly to 163 μl media. Then step e) of the dilution procedure described below, was followed.
Analysis: • Add 30 μl of reagent containing luciferase, luciferan substrate, and buffer per well, • shake 15 minutes at room temperature • incubate further 45 minutes at room temperature without shaking
Measurement: • Victor 2 scanning multiwell spectrophotometer (Wallac), Luminescence mode (0.5 sec/read, 477 nm) • Determine IC50 using a non-linear curve fit (XLfit® software [ID Business Solution Ltd., Guilford, Surrey, UK])
With `Cc1cc(Cl)ccc1C(=O)NS(=O)(=O)/C=C/c1ccccc1` [Example 6-6, (E)-2-Phenyl-ethenesulfonic acid 4-chloro-2-methyl-benzoylamide; sodium salt], the IC50 (usually the concentration at which inhibition is half-maximal) was in the range of 0.5 to 15 µM.
Next, `O=C(NS(=O)(=O)/C=C/c1ccccc1O)c1ccc(Cl)cc1Cl` [Example 1-33, (E)-2-(2-Hydroxy-phenyl)-ethenesulfonic acid 2,4-dichloro-benzoylamide]: 0.5 to 15 µM.
As for `C/C(=C\c1ccccc1)S(=O)(=O)NC(=O)c1ccc(Cl)cc1Cl` [Example 2-1, (E)-1-Phenyl-propene-2-sulfonic acid 2,4-dichloro-benzoylamide], the IC50 is 0.5 to 15 µM.
In the case of `Cc1ccc(C(=O)NS(=O)(=O)/C=C/c2ccc(C(F)(F)F)cc2)c(C)c1` [Example 4-40, (E)-2-(4-Trifluoromethyl-phenyl)-ethenesulfonic acid 2,4-dimethyl-benzoylamide; sodium salt], the IC50 fell in the range of 0.5 to 15 µM.
In turn, `Cc1ccc(C(=O)NS(=O)(=O)/C=C/c2ccc(OC(F)(F)F)cc2)c(Br)c1` [Example 4-37, (E)-2-(4-Trifluoromethoxyphenyl)-ethenesulfonic acid 2-bromo-4-methyl-benzoylamide; sodium salt] returned an IC50 of 0.5 to 15 µM.
Consider `COc1cccc(/C=C/S(=O)(=O)NC(=O)c2ccc(F)cc2Br)c1` [Example 4-18, (E)-2-(3-Methoxy-phenyl)-ethenesulfonic acid 2-bromo-4-fluoro-benzoylamide; sodium salt], for which the IC50 lay in the range of 0.5 to 15 µM.
Next, `O=C(NS(=O)(=O)/C=C/c1ccccc1Cl)c1ccc(C(F)(F)F)cc1C(F)(F)F` [Example 1-30, (E)-2-(2-Chlorophenyl)-ethenesulfonic acid 2,4-bis-trifluoromethyl-benzoylamide; sodium salt]: 0.5 to 15 µM; `COc1ccccc1/C=C/S(=O)(=O)NC(=O)c1ccc(Cl)cc1C` [Example 4-4, (E)-2-(2-Methoxy-phenyl)-ethenesulfonic acid 4-chloro-2-methyl-benzoylamide; sodium salt]: 0.5 to 15 µM.
Next, `Cc1ccc(C(=O)NS(=O)(=O)/C=C/c2ccc(Cl)c(Cl)c2)c(C)c1` [Example 4-34, (E)-2-(3,4-Dichloro-phenyl)-ethenesulfonic acid 2,4-dimethyl-benzoylamide; sodium salt]: 0.5 to 15 µM.
Next, `Cc1cc(Br)ccc1C(=O)NS(=O)(=O)C=Cc1ccccc1Cl` [Example 4-10, 2-(2-Chlorophenyl)-ethenesulfonic acid 4-bromo-2-methyl-benzoylamide; sodium salt]: 0.5 to 15 µM.
Take `COc1cc(C(F)(F)F)ccc1C(=O)NS(=O)(=O)/C=C/c1ccccc1` [Example 5-6, (E)-2-Phenyl-ethenesulfonic acid 2-methoxy-4-trifluoromethyl-benzoylamide]: the IC50 lay in the range of 0.5 to 15 µM.
Next, `O=C(NS(=O)(=O)/C=C/c1ccc(Cl)cc1)c1ccc(Cl)cc1Cl` [Example 1-1, (E)-2-(4-Chloro-phenyl)-ethenesulfonic acid 2,4-dichloro-benzoylamide]: 8.5 µM.
Next, `O=C(NS(=O)(=O)/C=C/c1ccccc1)c1ccc(Cl)cc1Cl` [Example 1-2, (E)-2-Phenyl-ethenesulfonic acid 2,4-dichloro-benzoylamide]: 3.1 µM.
As for `COc1cc(Cl)ccc1C(=O)NS(=O)(=O)C=Cc1ccccc1` [Example 6-1, 2-Phenyl-ethenesulfonic acid 4-chloro-2-methoxy-benzoylamide], the figure is 0.5 to 15 µM; as for `Cc1ccc(/C=C/S(=O)(=O)NC(=O)c2ccc(F)cc2C(F)(F)F)c(C)c1` [Example 1-20, (E)-2-(2,4-Dimethyl-phenyl)-ethenesulfonic acid 4-fluoro-2-trifluoromethyl-benzoylamide; sodium salt], 0.5 to 15 µM; as for `O=C(NS(=O)(=O)/C=C/c1ccc(F)cc1F)c1ccc(F)cc1Cl` [Example 1-17, (E)-2-(2,4-Difluoro-phenyl)-ethenesulfonic acid 2-chloro-4-fluoro-benzoylamide; sodium salt], 0.5 to 15 µM.
Consider `O=C(NS(=O)(=O)/C=C/c1cccc(O)c1)c1ccc(Cl)cc1Cl` [Example 1-35, (E)-2-(3-Hydroxy-phenyl)-ethenesulfonic acid 2,4-dichloro-benzoylamide], for which the concentration for half-maximal inhibition (IC50) lay in the range of 0.5 to 15 µM.
`C/C(=C\S(=O)(=O)NC(=O)c1ccc(Cl)cc1Cl)c1ccccc1` [Example 3-1, (E)-2-Phenyl-propene-1-sulfonic acid 2,4-dichloro-benzoylamide] registered an IC50 of 9.2 µM.
On to `O=C(NS(=O)(=O)/C=C/c1ccc(OC(F)(F)F)cc1)c1ccc(F)cc1Cl` [Example 1-39, (E)-2-(4-Trifluoromethoxyphenyl)-ethenesulfonic acid 2-chloro-4-fluoro-benzoylamide; sodium salt], for which the IC50 was in the range of 0.5 to 15 µM.
In turn, `CN(C)c1ccccc1/C=C/S(=O)(=O)NC(=O)c1ccc(Cl)cc1Cl` [Example 1-13, (E)-2-(2-Dimethylamino-phenyl)-ethenesulfonic acid 2,4-dichloro-benzoylamide] displayed an IC50 of 0.5 to 15 µM.
As for `COc1cccc(/C=C/S(=O)(=O)NC(=O)c2ccc(Cl)cc2OC)c1` [Example 4-5, (E)-2-(3-Methoxy-phenyl)-ethenesulfonic acid 4-chloro-2-methoxy-benzoylamide; sodium salt], the figure is 0.5 to 15 µM.
As for `COc1cccc(/C=C/S(=O)(=O)NC(=O)c2ccc(Br)cc2Cl)c1` [Example 4-25, (E)-2-(3-Methoxy-phenyl)-ethenesulfonic acid 4-bromo-2-chloro-benzoylamide; sodium salt], the IC50 lay in the range of 0.5 to 15 µM.
Compound `COc1ccccc1/C=C/S(=O)(=O)NC(=O)c1ccc(C)cc1Br` [Example 4-13, (E)-2-(2-Methoxy-phenyl)-ethenesulfonic acid 2-bromo-4-methyl-benzoylamide; sodium salt] displayed an IC50 of 0.5 to 15 µM.
As to `O=C(NS(=O)(=O)/C=C/c1ccccc1)c1ccc(F)cc1Br` [Example 6-2, (E)-2-Phenyl-ethenesulfonic acid 2-bromo-4-fluoro-benzoylamide; sodium salt], the IC50 is 0.5 to 15 µM.
`Cc1ccc(/C=C/S(=O)(=O)NC(=O)c2ccc(C(F)(F)F)cc2C(F)(F)F)c(C)c1` [Example 1-26, (E)-2-(2,4-Dimethyl-phenyl)-ethenesulfonic acid 2,4-bis-trifluoromethyl-benzoylamide; sodium salt] came in with an IC50 of 0.5 to 15 µM.
Compound `O=C(NS(=O)(=O)/C=C/c1ccccc1Cl)c1ccc(F)cc1Br` [Example 4-21, (E)-2-(2-Chlorophenyl)-ethenesulfonic acid 2-bromo-4-fluoro-benzoylamide; sodium salt] returned an IC50 of 0.5 to 15 µM.
Next, `Cc1ccc(C(=O)NS(=O)(=O)/C=C/c2ccccc2)c(C(F)(F)F)c1` [Example 5-2, (E)-2-Phenyl-ethenesulfonic acid 4-methyl-2-trifluoromethyl-benzoylamide]: 0.5 to 15 µM; `COc1ccccc1/C=C/S(=O)(=O)NC(=O)c1ccc(Cl)cc1Cl` [Example 1-5, (E)-2-(2-Methoxy-phenyl)-ethenesulfonic acid 2,4-dichloro-benzoylamide]: 0.5 to 15 µM.
On to `O=C(NS(=O)(=O)/C=C/c1ccccc1Cl)c1ccc(F)cc1C(F)(F)F` [Example 1-23, (E)-2-(2-Chlorophenyl)-ethenesulfonic acid 4-fluoro-2-trifluoromethyl-benzoylamide; sodium salt], for which the IC50 was in the range of 0.5 to 15 µM.
Consider `COc1ccccc1/C=C/S(=O)(=O)NC(=O)c1ccc(C)cc1C` [Example 4-31, (E)-2-(2-Methoxy-phenyl)-ethenesulfonic acid 2,4-dimethyl-benzoylamide; sodium salt], for which the IC50 fell in the range of 0.5 to 15 µM.
As for `O=C(NS(=O)(=O)/C=C/c1ccccc1Cl)c1ccc(Cl)cc1Cl` [Example 1-7, (E)-2-(2-Chlorophenyl)-ethenesulfonic acid 2,4-dichloro-benzoylamide], the figure is 0.5 to 15 µM.
`O=C(NS(=O)(=O)/C=C/c1ccc(C(F)(F)F)cc1)c1ccc(Cl)cc1Cl` [Example 1-3, (E)-2-(4-Trifluoromethyl-phenyl)-ethenesulfonic acid 2,4-dichloro-benzoylamide] showed an IC50 of 0.5 to 15 µM.
Next, `COc1cc(F)ccc1C(=O)NS(=O)(=O)/C=C/c1ccccc1` [Example 5-3, (E)-2-Phenyl-ethenesulfonic acid 4-fluoro-2-methoxy-benzoylamide]: 0.5 to 15 µM; `COc1cc(Br)ccc1C(=O)NS(=O)(=O)/C=C/c1ccccc1` [Example 5-1, (E)-2-Phenyl-ethenesulfonic acid 4-bromo-2-methoxy-benzoylamide]: 0.5 to 15 µM.
